The record followed here is patent US20210347823A1, “METHODS OF PHYSICOCHEMICAL-GUIDED PEPTIDE DESIGN AND NOVEL PEPTIDES DERIVED THEREFROM” (Massachusetts Institute of Technology, priority 2018, published 2021).

For data set [1], the system named is Escherichia coli strain BL21. As to the kind of experiment: MIC assay (broth microdilution) against E. coli BL21. It is filed as cell-based. The settings on record: E. coli BL21, 24 h, 37° C. An excerpt:
(§1) FIGS. 2A-2E. Design, physicochemical features and activity of Pol-CP—NH2 and Ala-scan analogs. FIG. 2A. Theoretical physicochemical properties of interest of the wild type and Ala-scan analogs, where H denotes hydrophobicity, μH is the hydrophobic moment, q represents the net charge and P/N is the ratio of polar/non-polar residues in the sequence. Top to bottom, left to right the sequences correspond to SEQ ID NOs: 1-13. FIG. 2B. Schematic of the in vitro biological activity experimental design. Briefly, 10^4 bacterial cells and serially diluted peptides (0-128 μmol L^−1) were added to a 96-well plate and incubated at 37° C. One day after the exposure, the solution in each well was measured in a microplate reader (600 nm) to check inhibition of bacteria compared to the untreated controls and presented as heat maps of antimicrobial activities (μmol L^−1) against four bacteria strains: E. coli strain BL21, S. aureus strain ATCC12600 and P. aeruginosa strains PA01, and PA14. Assays were performed in triplicates. FIG. 2C. Graph correlating MIC (μmol L^−1) averages vs H and (FIG. 2D) MIC (μmol L^−1) averages vs μH, where dots […] the dashed line show peptides with higher activity compared to the wild type, in which one can observe ranges of optimal activity in determined intervals of H and μH values. FIG. 2E. […]

In data set [2] the test system is P. aeruginosa strain PA01. As to the kind of experiment: MIC assay (broth microdilution) against P. aeruginosa PA01. Format: cell-based, Pseudomonas aeruginosa. The settings on record: P. aeruginosa PA01, 24 h, 37° C.
From the text: as §1
On the technique in general: Dilution methods test growth across graded concentrations, often in twofold steps.

Data set [3] is described as follows: Stability assay in fetal bovine serum. Format: in vitro ADME. The settings on record: fetal bovine serum, 6 h. As for the experimental part:
FIGS. 6A-6B. Hemolysis and resistance to protease-mediated degradation of engineered peptides. FIG. 6A. Schematic of experimental design and hemolytic assay results of Pol-CP—NH2 and derivatives, where hemolytic activity was evaluated by incubating the peptides (0.1-100 μmol L^−1) with human red blood cells in PBS at room temperature for 1 h. Experiments were performed in triplicate, (*p<0.05). FIG. 6B. Resistance to degradation of Pol-CP—NH2 and analogs exposed to fetal bovine serum (FBS) proteases for 6 h. Experiments were done in triplicate.
Stability Assays. The stability assay was performed with GIBCO fetal bovine serum diluted to 25% in water. 20 ? L of a 10 mg mL^−1 peptide solution was added to 1 mL 25% serum solution and kept at 37° C. The experiments were made in triplicate and 100 ? L aliquots were taken at 0, 0.5, 1, 2, 4 and 6 h. 10 ? L of TFA was added to the aliquots and the new solution was kept at 5° C. for 10 min, after that it was centrifuged at 14,000 rpm for 15 min, according to Powell et al. (Powell M. F. et al., Pharm. Res. 10, 1268-1273 (1993)). The reaction kinetics was followed by liquid chromatography and the percentage of remaining peptide was calculated by integrating the peptide peak area.

The term MIC denotes the lowest concentration that inhibits growth of the organism. Read a high MIC as a less susceptible organism.

“H-ILGTILGLLKSL-NH2 [WT, ILGTILGLLKSL-NH2, reference compound]”: the figures for the MIC in data set [1] and in data set [2] were 8.0 µM and 64.0 µM, respectively. On to “H-ILGTILKLLKSL-NH2 [Peptide 16, ILGTILKLLKSL-NH2]”, for which the “resistance to protease-mediated degradation” value in data set [3] is recorded as “increased resistance to protease-mediated degradation”.
